Patent US12122761B2, “2-azaspiro[3.4]octane derivatives as M4 agonists” (NOVARTIS AG, priority 2019, dated 2024)

Biological target: T1, Cloned human M1 receptor (CHRM1) stably expressed in HEK293 cells (Homo sapiens, UniProt P11229)
T1 construct: expressed in transfected cells; host or cells: HEK293
T1 sequence (P11229 1-460): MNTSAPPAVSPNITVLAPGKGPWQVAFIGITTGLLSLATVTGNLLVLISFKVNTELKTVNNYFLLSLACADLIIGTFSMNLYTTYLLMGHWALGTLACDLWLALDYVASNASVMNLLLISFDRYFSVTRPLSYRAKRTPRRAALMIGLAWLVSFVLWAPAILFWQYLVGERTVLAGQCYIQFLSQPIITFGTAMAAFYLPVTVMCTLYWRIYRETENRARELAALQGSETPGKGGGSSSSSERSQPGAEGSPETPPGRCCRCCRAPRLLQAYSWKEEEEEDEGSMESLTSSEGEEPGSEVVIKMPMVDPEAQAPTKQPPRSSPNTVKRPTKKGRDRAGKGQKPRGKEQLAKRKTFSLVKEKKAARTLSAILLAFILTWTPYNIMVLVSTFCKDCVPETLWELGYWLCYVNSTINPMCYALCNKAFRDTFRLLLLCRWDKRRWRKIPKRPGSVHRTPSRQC
Assay: CHRM1 Ca++ Flux Assay (agonist mode, FDSS 7000EX)
Assay type: cell-based
Settings: for Emax: HEK293, Percent Activity, read-out: M1 FDSS PA; for EC50: geometric mean if tested more than once
Procedure, shortened: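 Compounds tested as agonists at 11 concentrations in triplicate, with calcium traces captured over 3 minutes. Cells were HEK293 with stable human CHRM1 expression, plated overnight at 25K/well and loaded with calcium dye. Responses normalized to carbachol EC100 and fitted by four-parameter nonlinear regression.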

Emax | EC50 | Compound
34% | 537 nM | Cc1nccnc1N1CC2(CC[C@@H](N3CCC(c4ccccc4OCC(C)(C)O)CC3)C2)C1 [Example 5T, (R)-2-methyl-1-(2-(1-(2-(3-methylpyrazin-2-yl)-2-azaspiro[3.4]octan-6-yl)piperidin-4-yl)phenoxy)propan-2-ol]
57% | 186 nM | CC(C)(O)COc1ccccc1C1CCN([C@@H]2CCC3(C2)CN(c2ncns2)C3)CC1 [Example 3K, (R)-1-(2-(1-(2-(1,2,4-thiadiazol-5-yl)-2-azaspiro[3.4]octan-6-yl)piperidin-4-yl)phenoxy)-2-methylpropan-2-ol]
0% | > 25000 nM | COCCOc1ccccc1C1CCN([C@@H]2CCC3(C2)CN(c2cccnn2)C3)CC1 [Example 5X, (R)-6-(4-(2-(2-methoxyethoxy)phenyl)piperidin-1-yl)-2-(pyridazin-3-yl)-2-azaspiro[3.4]octane]
88% | 48 nM | FC1(COc2ccccc2C2CCN([C@@H]3CCC4(C3)CN(c3nncs3)C4)CC2)COC1 [Example 1H, (R)-2-(6-(4-(2-((3-fluorooxetan-3-yl)methoxy)phenyl)piperidin-1-yl)-2-azaspiro[3.4]octan-2-yl)-1,3,4-thiadiazole]
70% | 54 nM | COc1ccccc1C1CCN([C@@H]2CCC3(C2)CN(c2ccns2)C3)CC1 [Example 3I, (R)-5-(6-(4-(2-methoxyphenyl)piperidin-1-yl)-2-azaspiro[3.4]octan-2-yl)isothiazole]
0% | 1260 nM | COc1ccccc1C1CCN([C@@H]2CCC3(C2)CN(c2cnc(C)cn2)C3)CC1 [Example 5DD, (R)-6-(4-(2-methoxyphenyl)piperidin-1-yl)-2-(5-methylpyrazin-2-yl)-2-azaspiro[3.4]octane]

More lines, now with the values behind:

Compound | Emax | EC50
O=C(N1CC2(CC[C@@H](N3CCC(c4ccccc4C4CCOCC4)CC3)C2)C1)C1(F)CC1 [Example 6E, (R)-(1-fluorocyclopropyl)(6-(4-(2-(tetrahydro-2H-pyran-4-yl)phenyl)piperidin-1-yl)-2-azaspiro[3.4]octan-2-yl)methanone] | 67% | 120 nM
c1ccc(C2CCN([C@@H]3CCC4(C3)CN(c3nnco3)C4)CC2)c(OC2CC3(COC3)C2)c1 [Example 1A, (R)-2-(6-(4-(2-((2-oxaspiro[3.3]heptan-6-yl)oxy)phenyl)piperidin-1-yl)-2-azaspiro[3.4]octan-2-yl)-1,3,4-oxadiazole] | 63% | 237 nM
c1ccc(C2CCN([C@@H]3CCC4(C3)CN(c3nnco3)C4)CC2)c(OC[C@@H]2COCCO2)c1 [Example 1E, 2-((R)-6-(4-(2-(((S)-1,4-dioxan-2-yl)methoxy)phenyl)piperidin-1-yl)-2-azaspiro[3.4]octan-2-yl)-1,3,4-oxadiazole] | 85% | 57 nM
Fc1ccc(C2CCOC2)c(C2CCN([C@@H]3CCC4(C3)CN(c3nnco3)C4)CC2)c1 (mixture of isomers) [Example 2J, 2-((6R)-6-(4-(5-fluoro-2-(tetrahydrofuran-3-yl)phenyl)piperidin-1-yl)-2-azaspiro[3.4]octan-2-yl)-1,3,4-oxadiazole] | 97% | 46 nM
O=C(C1COC1)N1CC2(CC[C@@H](N3CCC(c4ccccc4OC4CCC4)CC3)C2)C1 [Example 7H, (R)-(6-(4-(2-cyclobutoxyphenyl)piperidin-1-yl)-2-azaspiro[3.4]octan-2-yl)(oxetan-3-yl)methanone] | 71% | 9 nM
CC1(COc2ccccc2C2CCN([C@@H]3CCC4(C3)CN(c3nnco3)C4)CC2)CCOCC1 [Example 2E, (R)-2-(6-(4-(2-((4-methyltetrahydro-2H-pyran-4-yl)methoxy)phenyl)piperidin-1-yl)-2-azaspiro[3.4]octan-2-yl)-1,3,4-oxadiazole] | 78% | 381 nM
COC(C)(C)COc1ccccc1C1CCN([C@@H]2CCC3(C2)CN(C(=O)C2COC2)C3)CC1 [Example 7HH, (R)-(6-(4-(2-(2-methoxy-2-methylpropoxy)phenyl)piperidin-1-yl)-2-azaspiro[3.4]octan-2-yl)(oxetan-3-yl)methanone] | 82% | 159 nM
CC(C)(O)COc1ccccc1C1CCN([C@@H]2CCC3(C2)CN(C(=O)C2COC2)C3)CC1 [Example 7L, (R)-(6-(4-(2-(2-hydroxy-2-methylpropoxy)phenyl)piperidin-1-yl)-2-azaspiro[3.4]octan-2-yl)(oxetan-3-yl)methanone] | 85% | 324 nM
O=C(C1COC1)N1CC2(CC[C@@H](N3CCC(c4ccccc4OCC4CC4)CC3)C2)C1 [Example 7I, (R)-(6-(4-(2-(cyclopropylmethoxy)phenyl)piperidin-1-yl)-2-azaspiro[3.4]octan-2-yl)(oxetan-3-yl)methanone] | 86% | 15 nM
FC1(COc2ccccc2C2CCN([C@@H]3CCC4(C3)CN(c3nncs3)C4)CC2)CCOCC1 [Example 1J, (R)-2-(6-(4-(2-((4-fluorotetrahydro-2H-pyran-4-yl)methoxy)phenyl)piperidin-1-yl)-2-azaspiro[3.4]octan-2-yl)-1,3,4-thiadiazole] | 78% | 182 nM
N#CCCOc1ccccc1C1CCN([C@@H]2CCC3(C2)CN(C(=O)C2COC2)C3)CC1 [Example 7D, (R)-3-(2-(1-(2-(oxetane-3-carbonyl)-2-azaspiro[3.4]octan-6-yl)piperidin-4-yl)phenoxy)propanenitrile] | 114% | 3 nM
